Measurements from the kinase profiling compilation of Christmann-Franck et al. (2016).

Key:
Experiment in all cases: KINOMEscan competition binding
Details in all cases: compound 10.0 µM
CaMK1 (human) = CaMK1 (human) (UniProt Q14012)
CAMK2B (human) = CAMK2B (human) (UniProt Q13554)
ACVR1B (human) = ACVR1B (human) (UniProt P36896)
MYLK4 (human) = MYLK4 (human) (UniProt Q86YV6)
DAPK1 (human) = DAPK1 (human) (UniProt P53355)
GAK (human) = GAK (human) (UniProt O14976)
RPS6KA6 KD2 (human) = RPS6KA6 KD2 (human) (UniProt Q9UK32)
[1] = system: FLT3 (human), P36888 [K663Q]
TLK2 (human) = TLK2 (human) (UniProt Q86UE8)
MAPK6 (human) = MAPK6 (human) (UniProt Q16659)
MAPK6 (human), sequence (Q16659 whole entry, looked up): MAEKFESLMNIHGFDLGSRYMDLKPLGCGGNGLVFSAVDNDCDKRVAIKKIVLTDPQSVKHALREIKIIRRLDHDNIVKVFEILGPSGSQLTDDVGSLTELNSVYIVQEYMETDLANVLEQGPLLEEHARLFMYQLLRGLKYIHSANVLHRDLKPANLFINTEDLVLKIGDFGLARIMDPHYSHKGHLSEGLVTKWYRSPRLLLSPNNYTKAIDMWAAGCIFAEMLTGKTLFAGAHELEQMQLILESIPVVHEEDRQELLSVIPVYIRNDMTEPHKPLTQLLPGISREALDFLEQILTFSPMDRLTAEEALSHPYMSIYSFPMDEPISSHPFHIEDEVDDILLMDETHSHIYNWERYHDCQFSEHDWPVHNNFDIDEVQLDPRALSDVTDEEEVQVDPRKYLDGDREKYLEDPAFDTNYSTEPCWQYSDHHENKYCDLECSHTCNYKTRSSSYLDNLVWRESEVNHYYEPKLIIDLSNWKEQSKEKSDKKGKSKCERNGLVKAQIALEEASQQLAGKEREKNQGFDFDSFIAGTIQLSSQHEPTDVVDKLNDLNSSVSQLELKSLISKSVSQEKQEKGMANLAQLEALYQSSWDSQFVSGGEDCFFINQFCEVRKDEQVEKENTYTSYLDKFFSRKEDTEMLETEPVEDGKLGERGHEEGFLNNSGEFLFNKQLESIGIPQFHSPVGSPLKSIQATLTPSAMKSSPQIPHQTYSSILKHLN

RPS6KA4 KD1 (human) = RPS6KA4 KD1 (human) (UniProt O75676)
PLK1 (human) = PLK1 (human) (UniProt P53350)
YSK4 (human) = YSK4 (human) (UniProt Q56UN5)
MAP2K6 (human) = MAP2K6 (human) (UniProt P52564)
MST4 (human) = MST4 (human) (UniProt Q9P289)
PRKCQ (human) = PRKCQ (human) (UniProt Q04759)
ERN1 (human) = ERN1 (human) (UniProt O75460)
PKN2 (human) = PKN2 (human) (UniProt Q16513)
BTK (human) = BTK (human) (UniProt Q06187)
FGR (human) = FGR (human) (UniProt P09769)
TTK (human) = TTK (human) (UniProt P33981)
CAMK4 (human) = CAMK4 (human) (UniProt Q16566)
EIF2AK2 (human) = EIF2AK2 (human) (UniProt P19525)
CSNK1G3 (human) = CSNK1G3 (human) (UniProt Q9Y6M4)
MAP4K3 (human) = MAP4K3 (human) (UniProt Q8IVH8)
ACVRL1 (human) = ACVRL1 (human) (UniProt P37023)
ACVRL1 (human), sequence (P37023 whole entry, looked up): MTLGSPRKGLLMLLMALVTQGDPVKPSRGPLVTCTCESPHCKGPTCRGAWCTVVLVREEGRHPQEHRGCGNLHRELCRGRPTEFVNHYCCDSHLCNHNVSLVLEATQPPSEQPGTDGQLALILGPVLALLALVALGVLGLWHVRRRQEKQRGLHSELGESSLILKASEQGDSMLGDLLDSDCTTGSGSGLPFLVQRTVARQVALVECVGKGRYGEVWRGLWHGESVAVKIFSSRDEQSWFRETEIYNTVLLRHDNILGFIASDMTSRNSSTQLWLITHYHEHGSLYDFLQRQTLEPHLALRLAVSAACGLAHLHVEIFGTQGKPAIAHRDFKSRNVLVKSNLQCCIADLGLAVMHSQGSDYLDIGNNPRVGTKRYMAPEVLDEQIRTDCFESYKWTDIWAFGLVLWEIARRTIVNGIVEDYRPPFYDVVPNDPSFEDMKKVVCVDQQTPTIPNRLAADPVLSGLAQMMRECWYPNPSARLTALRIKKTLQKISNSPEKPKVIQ

STK32A (human) = STK32A (human) (UniProt Q8WU08)
CDC42BPA (human) = CDC42BPA (human) (UniProt Q5VT25)
NEK7 (human) = NEK7 (human) (UniProt Q8TDX7)
NEK7 (human), sequence (Q8TDX7 whole entry, looked up): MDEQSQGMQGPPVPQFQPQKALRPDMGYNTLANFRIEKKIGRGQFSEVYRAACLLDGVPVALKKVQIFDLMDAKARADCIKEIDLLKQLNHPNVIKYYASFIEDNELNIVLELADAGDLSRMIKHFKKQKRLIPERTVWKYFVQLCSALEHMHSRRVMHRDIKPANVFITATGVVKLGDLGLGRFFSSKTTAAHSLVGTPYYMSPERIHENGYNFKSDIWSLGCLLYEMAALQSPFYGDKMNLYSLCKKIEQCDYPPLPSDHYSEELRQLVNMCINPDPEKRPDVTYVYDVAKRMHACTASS

MAP2K4 (human) = MAP2K4 (human) (UniProt P45985)
MAP2K4 (human), sequence (P45985 whole entry, looked up): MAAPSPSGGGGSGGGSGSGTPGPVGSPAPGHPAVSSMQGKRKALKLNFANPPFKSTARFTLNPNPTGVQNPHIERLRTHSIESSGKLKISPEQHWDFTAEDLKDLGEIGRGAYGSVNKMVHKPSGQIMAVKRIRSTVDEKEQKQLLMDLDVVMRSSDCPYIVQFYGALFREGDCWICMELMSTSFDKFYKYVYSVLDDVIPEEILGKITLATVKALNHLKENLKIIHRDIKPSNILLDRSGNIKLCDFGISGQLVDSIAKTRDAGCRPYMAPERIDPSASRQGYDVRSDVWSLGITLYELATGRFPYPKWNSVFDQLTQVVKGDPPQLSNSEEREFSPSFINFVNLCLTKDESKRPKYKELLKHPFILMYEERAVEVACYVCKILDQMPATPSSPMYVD

PLK2 (human) = PLK2 (human) (UniProt Q9NYY3)
[2] = system: PIK3CA (human), P42336 [Q546K]
[3] = biological target: TYK2 JH2 pseudokinase (human) (UniProt P29597)
PRKACB (human) = PRKACB (human) (UniProt P22694)
ERBB2 (human) = ERBB2 (human) (UniProt P04626)
ERBB2 (human), sequence (P04626 whole entry, looked up): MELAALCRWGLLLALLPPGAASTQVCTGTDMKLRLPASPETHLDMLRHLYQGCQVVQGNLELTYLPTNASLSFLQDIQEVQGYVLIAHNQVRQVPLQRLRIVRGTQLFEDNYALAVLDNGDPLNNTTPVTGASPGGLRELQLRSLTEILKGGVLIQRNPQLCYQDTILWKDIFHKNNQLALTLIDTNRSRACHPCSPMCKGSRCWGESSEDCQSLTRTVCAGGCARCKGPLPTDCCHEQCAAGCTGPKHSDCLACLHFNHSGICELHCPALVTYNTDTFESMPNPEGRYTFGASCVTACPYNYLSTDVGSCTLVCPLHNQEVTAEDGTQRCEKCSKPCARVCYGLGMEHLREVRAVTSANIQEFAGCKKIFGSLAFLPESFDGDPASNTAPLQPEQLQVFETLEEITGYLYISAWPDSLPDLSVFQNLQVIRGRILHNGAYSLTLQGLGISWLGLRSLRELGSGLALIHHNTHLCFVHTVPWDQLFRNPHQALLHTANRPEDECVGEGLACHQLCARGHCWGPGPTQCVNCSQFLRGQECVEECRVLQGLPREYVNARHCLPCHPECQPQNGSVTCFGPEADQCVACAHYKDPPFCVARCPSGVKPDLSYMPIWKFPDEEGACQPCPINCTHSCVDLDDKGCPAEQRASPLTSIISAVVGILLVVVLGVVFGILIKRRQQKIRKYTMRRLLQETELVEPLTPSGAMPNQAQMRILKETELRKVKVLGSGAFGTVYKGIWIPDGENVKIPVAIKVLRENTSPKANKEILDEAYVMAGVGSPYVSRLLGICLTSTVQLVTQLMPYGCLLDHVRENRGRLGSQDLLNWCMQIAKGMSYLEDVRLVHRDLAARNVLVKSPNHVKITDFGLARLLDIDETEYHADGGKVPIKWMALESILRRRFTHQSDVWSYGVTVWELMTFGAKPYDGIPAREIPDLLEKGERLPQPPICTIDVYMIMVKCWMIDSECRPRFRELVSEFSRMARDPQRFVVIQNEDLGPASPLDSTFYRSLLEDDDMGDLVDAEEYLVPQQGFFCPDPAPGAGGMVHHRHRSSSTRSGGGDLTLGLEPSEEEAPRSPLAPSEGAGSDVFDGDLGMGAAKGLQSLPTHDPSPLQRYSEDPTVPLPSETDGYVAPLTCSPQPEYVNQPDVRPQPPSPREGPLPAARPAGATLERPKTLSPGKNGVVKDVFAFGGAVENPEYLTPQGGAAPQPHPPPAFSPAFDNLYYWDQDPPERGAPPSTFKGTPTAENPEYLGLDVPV

FGFR4 (human) = FGFR4 (human) (UniProt P22455)
PRKAA2 (human) = PRKAA2 (human) (UniProt P54646)
MYO3B (human) = MYO3B (human) (UniProt Q8WXR4)
STK39 (human) = STK39 (human) (UniProt Q9UEW8)
CIT (human) = CIT (human) (UniProt O14578)

ACVR1B (human), sequence (P36896 whole entry, looked up): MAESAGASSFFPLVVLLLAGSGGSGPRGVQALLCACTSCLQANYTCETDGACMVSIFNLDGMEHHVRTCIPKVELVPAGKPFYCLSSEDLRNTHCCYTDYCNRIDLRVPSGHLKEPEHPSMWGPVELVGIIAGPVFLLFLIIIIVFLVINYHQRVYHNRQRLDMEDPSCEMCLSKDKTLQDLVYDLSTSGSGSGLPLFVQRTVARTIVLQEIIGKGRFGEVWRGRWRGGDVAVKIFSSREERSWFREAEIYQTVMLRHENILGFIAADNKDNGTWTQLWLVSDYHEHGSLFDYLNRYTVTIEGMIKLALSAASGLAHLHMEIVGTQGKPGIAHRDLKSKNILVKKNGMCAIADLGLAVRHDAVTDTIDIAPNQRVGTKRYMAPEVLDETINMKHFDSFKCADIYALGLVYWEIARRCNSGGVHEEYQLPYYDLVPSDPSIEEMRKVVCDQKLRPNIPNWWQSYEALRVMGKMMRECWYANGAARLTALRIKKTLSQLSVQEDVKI
GAK (human), sequence (O14976 whole entry, looked up): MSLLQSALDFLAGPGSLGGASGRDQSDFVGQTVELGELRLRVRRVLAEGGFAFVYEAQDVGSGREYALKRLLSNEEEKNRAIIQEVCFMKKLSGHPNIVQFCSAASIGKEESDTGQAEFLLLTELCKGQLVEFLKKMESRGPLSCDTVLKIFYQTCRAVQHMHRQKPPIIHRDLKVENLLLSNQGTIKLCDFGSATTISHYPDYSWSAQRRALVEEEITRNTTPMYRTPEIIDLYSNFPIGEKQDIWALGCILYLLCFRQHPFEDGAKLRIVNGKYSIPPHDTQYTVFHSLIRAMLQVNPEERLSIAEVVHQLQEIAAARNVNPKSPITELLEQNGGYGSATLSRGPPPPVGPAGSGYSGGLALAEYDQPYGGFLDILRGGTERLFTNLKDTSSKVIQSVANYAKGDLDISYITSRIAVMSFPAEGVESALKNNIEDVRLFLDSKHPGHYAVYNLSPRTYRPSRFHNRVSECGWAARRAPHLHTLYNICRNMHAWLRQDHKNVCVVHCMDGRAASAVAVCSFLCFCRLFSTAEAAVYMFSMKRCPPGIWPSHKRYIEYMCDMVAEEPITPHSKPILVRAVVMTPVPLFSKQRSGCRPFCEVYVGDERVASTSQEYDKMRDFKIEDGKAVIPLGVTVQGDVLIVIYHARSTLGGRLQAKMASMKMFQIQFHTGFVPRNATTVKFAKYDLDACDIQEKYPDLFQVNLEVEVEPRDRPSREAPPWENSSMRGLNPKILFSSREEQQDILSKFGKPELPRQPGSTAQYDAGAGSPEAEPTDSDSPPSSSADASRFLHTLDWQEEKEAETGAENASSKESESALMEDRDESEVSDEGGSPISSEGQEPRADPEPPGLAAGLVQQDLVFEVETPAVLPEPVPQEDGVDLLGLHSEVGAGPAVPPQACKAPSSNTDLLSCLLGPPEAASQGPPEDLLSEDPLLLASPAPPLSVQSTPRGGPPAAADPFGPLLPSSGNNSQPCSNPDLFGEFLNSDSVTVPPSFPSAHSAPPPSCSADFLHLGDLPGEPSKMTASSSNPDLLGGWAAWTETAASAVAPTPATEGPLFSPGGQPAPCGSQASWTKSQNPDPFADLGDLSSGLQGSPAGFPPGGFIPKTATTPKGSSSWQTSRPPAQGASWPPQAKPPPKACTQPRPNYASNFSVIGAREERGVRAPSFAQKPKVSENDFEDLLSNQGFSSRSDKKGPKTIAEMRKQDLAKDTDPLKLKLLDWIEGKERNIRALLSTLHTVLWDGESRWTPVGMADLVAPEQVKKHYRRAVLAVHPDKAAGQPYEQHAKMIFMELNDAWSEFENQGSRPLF

Question: Which kinase still bound, per cent of control (CaMK1 (human)) does the source give for C=CC(=O)Nc1cc(NC(=O)c2ccc(C)c(NC(=O)c3ccno3)c2)cc(C(F)(F)F)c1 here?
Answer: 88%

Question: And the kinase still bound, per cent of control (CAMK2B (human))?
Answer: 100%

Question: What about the kinase still bound, per cent of control (ACVR1B (human)) of the same compound?
Answer: 100%

Question: What about the kinase still bound, per cent of control (MYLK4 (human)) of the same compound?
Answer: 97%

Question: What about the kinase still bound, per cent of control (DAPK1 (human)) of the same compound?
Answer: 80%

Question: What about the kinase still bound, per cent of control (GAK (human)) of the same compound?
Answer: 100%

Question: And the kinase still bound, per cent of control (RPS6KA6 KD2 (human))?
Answer: 79%

Question: And the kinase still bound, per cent of control [1]?
Answer: 100%

Question: And the kinase still bound, per cent of control (TLK2 (human))?
Answer: 100%

Question: What about the kinase still bound, per cent of control (MAPK6 (human)) of the same compound?
Answer: 100%

Question: What about the kinase still bound, per cent of control (RPS6KA4 KD1 (human)) of the same compound?
Answer: 100%

Question: And the kinase still bound, per cent of control (PLK1 (human))?
Answer: 77%

Question: And the kinase still bound, per cent of control (YSK4 (human))?
Answer: 74%

Question: And the kinase still bound, per cent of control (MAP2K6 (human))?
Answer: 100%

Question: And the kinase still bound, per cent of control (MST4 (human))?
Answer: 91%

Question: And the kinase still bound, per cent of control (PRKCQ (human))?
Answer: 100%

Question: What about the kinase still bound, per cent of control (ERN1 (human)) of the same compound?
Answer: 90%

Question: What about the kinase still bound, per cent of control (PKN2 (human)) of the same compound?
Answer: 100%

Question: What about the kinase still bound, per cent of control (BTK (human)) of the same compound?
Answer: 100%

Question: And the kinase still bound, per cent of control (FGR (human))?
Answer: 63%

Question: What about the kinase still bound, per cent of control (TTK (human)) of the same compound?
Answer: 77%

Question: What about the kinase still bound, per cent of control (CAMK4 (human)) of the same compound?
Answer: 100%

Question: What about the kinase still bound, per cent of control (EIF2AK2 (human)) of the same compound?
Answer: 100%

Question: What about the kinase still bound, per cent of control (CSNK1G3 (human)) of the same compound?
Answer: 96%

Question: What about the kinase still bound, per cent of control (MAP4K3 (human)) of the same compound?
Answer: 87%

Question: What about the kinase still bound, per cent of control (ACVRL1 (human)) of the same compound?
Answer: 100%

Question: And the kinase still bound, per cent of control (STK32A (human))?
Answer: 100%

Question: And the kinase still bound, per cent of control (CDC42BPA (human))?
Answer: 100%

Question: What about the kinase still bound, per cent of control (NEK7 (human)) of the same compound?
Answer: 100%

Question: And the kinase still bound, per cent of control (MAP2K4 (human))?
Answer: 100%

Question: What about the kinase still bound, per cent of control (PLK2 (human)) of the same compound?
Answer: 100%

Question: What about the kinase still bound, per cent of control [2] of the same compound?
Answer: 78%

Question: What about the kinase still bound, per cent of control [3] of the same compound?
Answer: 100%

Question: What about the kinase still bound, per cent of control (PRKACB (human)) of the same compound?
Answer: 100%

Question: And the kinase still bound, per cent of control (ERBB2 (human))?
Answer: 100%

Question: What about the kinase still bound, per cent of control (FGFR4 (human)) of the same compound?
Answer: 100%

Question: What about the kinase still bound, per cent of control (PRKAA2 (human)) of the same compound?
Answer: 100%

Question: What about the kinase still bound, per cent of control (MYO3B (human)) of the same compound?
Answer: 100%

Question: And the kinase still bound, per cent of control (STK39 (human))?
Answer: 86%

Question: And the kinase still bound, per cent of control (CIT (human))?
Answer: 97%
